Source: the supplement of paper PMC11451515

Columns and labels:
Settings in all cases: 48 h
[1] = test system: SEM cells; test: cell viability relative to DMSO control; higher = less cytotoxic
Summary of the method: (§1)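 NOMO1 or SEM (500 cells/well) or P12-Ichikawa (1000 cells/well) leukemia cells were adapted for at least four passages in each medium. They were seeded in 1536-well plates (5 μl) and pin-dosed with library compounds in DMSO over an 11-point threefold series, 47 μM to 0.79 nM. CellTiter-Glo One luminescence was read after 48 h at 37°C. Viability is the per-plate percentage relative to DMSO wells, with cell-free wells as background.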

[2] = test system: NOMO1; test: as above
Summary of the method: as §1

[3] = test system: P12-Ichikawa; test: as above
Summary of the method: as §1

[4] = test system: SEM cells; test: AUC of viability dose-response curve (% viability x log10 dose units); higher = less sensitive
Summary of the method: (§2)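 Leukemia cells adapted to each medium were seeded in 1536-well plates (500 or 1000 cells/well). They were dosed with library compounds in DMSO at 11 threefold doses, 47 μM to 0.79 nM, for 48 h at 37°C. CellTiter-Glo One luminescence was normalised per plate to DMSO and cell-free wells. Area under the curve was integrated by trapezoidal rule over log10 doses on a four-parameter log-logistic fit; curves exceeding full viability were scaled and curves failing quality control removed.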

[5] = test system: NOMO1; test: as above
Summary of the method: as §2

[6] = test system: P12-Ichikawa; test: as above
Summary of the method: as §2

CN(C)[C@H]\1[C@@H]2[C@@H](O)[C@@H]\3C(=C)C4=C(C(=CC=C4)O)C(=O)C3=C(\O)[C@@]2(O)C(=O)\C(=C1O)C(N)=O
cell viability [%]
Settings | [1] | [2] | [3]
HPLM + 10% dialyzed FBS, 0.000781 µM | 85.1 | 130 | –
HPLM + 10% dialyzed FBS, 0.00234 µM | 91.5 | 120 | –
HPLM + 10% dialyzed FBS, 0.00702 µM | 81.1 | 122 | –
HPLM + 10% dialyzed FBS, 0.0211 µM | 97.1 | 128 | –
HPLM + 10% dialyzed FBS, 0.0632 µM | 90.4 | 135 | –
HPLM + 10% dialyzed FBS, 0.19 µM | 98.6 | 110 | –
HPLM + 10% dialyzed FBS, 0.569 µM | 98.2 | 111 | –
HPLM + 10% dialyzed FBS, 1.71 µM | 113 | 127 | –
HPLM + 10% dialyzed FBS, 5.12 µM | 96.5 | 103 | –
HPLM + 10% dialyzed FBS, 15.4 µM | 97.8 | 107 | –
HPLM + 10% dialyzed FBS, 46.1 µM | 91.6 | 121 | –
RPMI 5 mM glucose + 10% FBS, 0.000781 µM | 104 | – | 115
RPMI 5 mM glucose + 10% FBS, 0.00234 µM | 97.8 | – | 120
RPMI 5 mM glucose + 10% FBS, 0.00702 µM | 82.5 | – | 124
RPMI 5 mM glucose + 10% FBS, 0.0211 µM | 119 | – | 126
RPMI 5 mM glucose + 10% FBS, 0.0632 µM | 112 | – | 115
RPMI 5 mM glucose + 10% FBS, 0.19 µM | 124 | – | 128
RPMI 5 mM glucose + 10% FBS, 0.569 µM | 118 | – | 120
RPMI 5 mM glucose + 10% FBS, 1.71 µM | 118 | – | 125
RPMI 5 mM glucose + 10% FBS, 5.12 µM | 105 | – | 122
RPMI 5 mM glucose + 10% FBS, 15.4 µM | 93.9 | – | 111
RPMI 5 mM glucose + 10% FBS, 46.1 µM | 79.7 | – | 99.1
RPMI 5 mM glucose + 10% dialyzed FBS, 0.000781 µM | 112 | 127 | 126
RPMI 5 mM glucose + 10% dialyzed FBS, 0.00234 µM | 121 | 119 | 122
RPMI 5 mM glucose + 10% dialyzed FBS, 0.00702 µM | 86.7 | 121 | 119
RPMI 5 mM glucose + 10% dialyzed FBS, 0.0211 µM | 108 | 121 | 123
RPMI 5 mM glucose + 10% dialyzed FBS, 0.0632 µM | 122 | 116 | 129
RPMI 5 mM glucose + 10% dialyzed FBS, 0.19 µM | 125 | 112 | 128
RPMI 5 mM glucose + 10% dialyzed FBS, 0.569 µM | 106 | 121 | 118
RPMI 5 mM glucose + 10% dialyzed FBS, 1.71 µM | 123 | 125 | 117
RPMI 5 mM glucose + 10% dialyzed FBS, 5.12 µM | 114 | 111 | 125
RPMI 5 mM glucose + 10% dialyzed FBS, 15.4 µM | 107 | 124 | 119
RPMI 5 mM glucose + 10% dialyzed FBS, 46.1 µM | 91.6 | 123 | 107

AUC of viability dose-response curve
Settings | [4] | [5] | [6]
HPLM + 10% dialyzed FBS | 452 | 449 | 465
RPMI 5 mM glucose + 10% FBS | 463 | 462 | 468
RPMI 5 mM glucose + 10% dialyzed FBS | 466 | 474 | 472

COc1ccc([C@@H]2CNC(=O)C2)cc1OC1CCCC1
cell viability [%]
Settings | [1] | [2] | [3]
HPLM + 10% dialyzed FBS, 0.000781 µM | 83.1 | 106 | 103
HPLM + 10% dialyzed FBS, 0.00234 µM | 90.7 | 108 | 107
HPLM + 10% dialyzed FBS, 0.00702 µM | 93.9 | 108 | 104
HPLM + 10% dialyzed FBS, 0.0211 µM | 102 | 111 | 110
HPLM + 10% dialyzed FBS, 0.0632 µM | 103 | 117 | 109
HPLM + 10% dialyzed FBS, 0.19 µM | 103 | 114 | 111
HPLM + 10% dialyzed FBS, 0.569 µM | 96.2 | 136 | 113
HPLM + 10% dialyzed FBS, 1.71 µM | 114 | 114 | 109
HPLM + 10% dialyzed FBS, 5.12 µM | 114 | 117 | 117
HPLM + 10% dialyzed FBS, 15.4 µM | 111 | 118 | 114
HPLM + 10% dialyzed FBS, 46.1 µM | 93.2 | 116 | 109
RPMI 5 mM glucose + 10% FBS, 0.000781 µM | 76.9 | 112 | 101
RPMI 5 mM glucose + 10% FBS, 0.00234 µM | 101 | 111 | 104
RPMI 5 mM glucose + 10% FBS, 0.00702 µM | 92.3 | 106 | 110
RPMI 5 mM glucose + 10% FBS, 0.0211 µM | 93.7 | 96.7 | 99.8
RPMI 5 mM glucose + 10% FBS, 0.0632 µM | 100 | 114 | 97.1
RPMI 5 mM glucose + 10% FBS, 0.19 µM | 98.6 | 107 | 113
RPMI 5 mM glucose + 10% FBS, 0.569 µM | 92 | 104 | 117
RPMI 5 mM glucose + 10% FBS, 1.71 µM | 95.5 | 112 | 105
RPMI 5 mM glucose + 10% FBS, 5.12 µM | 103 | 99.7 | 117
RPMI 5 mM glucose + 10% FBS, 15.4 µM | 95.6 | 105 | 118
RPMI 5 mM glucose + 10% FBS, 46.1 µM | 98 | 107 | 108
RPMI 5 mM glucose + 10% dialyzed FBS, 0.000781 µM | 97.1 | 92.6 | 99.1
RPMI 5 mM glucose + 10% dialyzed FBS, 0.00234 µM | 94.3 | 101 | 106
RPMI 5 mM glucose + 10% dialyzed FBS, 0.00702 µM | 97.9 | 119 | 113
RPMI 5 mM glucose + 10% dialyzed FBS, 0.0211 µM | 70.6 | 105 | 107
RPMI 5 mM glucose + 10% dialyzed FBS, 0.0632 µM | 97.4 | 114 | 118
RPMI 5 mM glucose + 10% dialyzed FBS, 0.19 µM | 103 | 115 | 110
RPMI 5 mM glucose + 10% dialyzed FBS, 0.569 µM | 104 | 105 | 114
RPMI 5 mM glucose + 10% dialyzed FBS, 1.71 µM | 106 | 115 | 103
RPMI 5 mM glucose + 10% dialyzed FBS, 5.12 µM | 99.6 | 112 | 113
RPMI 5 mM glucose + 10% dialyzed FBS, 15.4 µM | 97.6 | 105 | 111
RPMI 5 mM glucose + 10% dialyzed FBS, 46.1 µM | 90.9 | 119 | 118

AUC of viability dose-response curve
Settings | [4] | [5] | [6]
HPLM + 10% dialyzed FBS | 454 | 452 | 466
RPMI 5 mM glucose + 10% FBS | 458 | 467 | 456
RPMI 5 mM glucose + 10% dialyzed FBS | 459 | 468 | 458
